Reference: US20230165861A1, “USE FOR PROTECTING OR MITIGATING RADIATION DAMAGE, AND FOR PREVENTING OR TREATING PULMONARY FIBROSIS” (KOREA INSTITUTE OF RADIOLOGICAL & MEDICAL SCIENCES, priority 2017, published 2023)

Assays:
[1] = tested on: pulmonary vascular endothelial cells of irradiated lung; assay: Pulmonary fibrosis inhibition test in experimental animal model (trichrome staining of collagen); assay type: in vivo, C57BL/6 mouse; conditions: 10 mg/kg intraperitoneally one hour before 90 Gy lung irradiation; inner wall of the aorta of lung tissue; compared to irradiation group (IR)
Experimental: The tissue of a mouse was fixed with 10% neutral formalin for one day, and a paraffin section was made. In order to remove paraffin around the tissue, the tissue was allowed to react with a xylene solution and 95%, 90%, and 70% ethanol solutions in sequential order for 5 minutes each. For the antigen activation of the tissue, the tissue was immersed in a 0.1 M citric acid solution (pH 6.0) and then boiled for 20 minutes. Subsequently, the tissue was allowed to react with a Bouin's solution for 1 minute, Weigert's hematoxylin for 10 minutes, phoshotunstic/phosphomolydic acid for 10 minutes, aniline blue for 5 minutes, and 1% acetic acid for 1 minute in sequential order. Thereafter, a dehydration process was performed, and then the tissue was covered with a cover glass and observed under a microscope (Carl Zeiss Vision). In order to observe whether a phenomenon of pulmonary fibrosis of vascular endothelial cells is shown as the symptom of pulmonary fibrosis occurred after radiotherapy, the site of the lung of a C57BL/6 mouse was topically irradiated with an intensity of 90 Gy. After excising the lung from the mouse, the cross-section of the aorta of the lung tissue was stained by a trichrome staining method in order to identify collagen which is a protein shown upon fibrosis of the pulmonary vascular endothelial cells. […]

[2] = tested on: lung tissue of a mouse animal model irradiated with 90 Gy; assay: Inhibition test on tissue damage caused by radiation (H&E staining of lung tissue); assay type: in vivo; conditions: 10 mg/kg intraperitoneally one hour before 90 Gy chest irradiation; two weeks after irradiation; compared to non-treatment group (IR)
Experimental: The tissue of a mouse was fixed with 10% neutral formalin for one day, and a paraffin section was made. In order to remove the paraffin around the tissue, the tissue was allowed to react with a xylene solution and 95%, 90%, and 70% ethanol solutions in sequential order for 5 minutes each, and then immersed in a hematoxylin solution for 1 minute to stain the nuclei and then washed under running water for 10 minutes. Thereafter, the cytoplasm was stained by immersing the tissue in an eosin solution for 30 seconds. Thereafter, the tissue was immersed in 50%, 70%, 90%, and 95% ethanol solutions, and a xylene solution in sequential order, followed by dropping one drop of a mounting solution. Then, the tissue was covered with a cover slide and observed under a microscope (Carl Zeiss Vision). The lung tissue of a mouse animal model, in which the chest of the mouse was irradiated in a size of 3 mm with an intensity of 90 Gy, was fixed with 10% formalin, and a paraffin section was made. Thereafter, tissue inflammatory response and fibrosis were identified by using a hematoxylin and eosin staining method. Upon observing the tissue with this staining method, the cell nucleus is observed in blue and the cytoplasm in pink. One hour before irradiating the mouse animal model, 10 mg/kg of Dacomitinib was administered intraperitoneally. […]

[3] = tested on: lung tissue of bleomycin-injected mouse; assay: Inhibition test on tissue damage caused by bleomycin (bleomycin-induced pulmonary fibrosis model); assay type: in vivo; conditions: 10 mg/kg intraperitoneally one hour before 1.25 U/kg bleomycin into the airway; three weeks after injection; compared to non-treatment group
Experimental: The tissue of a mouse was fixed with 10% neutral formalin for one day, and a paraffin section was made. In order to remove the paraffin around the tissue, the tissue was allowed to react with a xylene solution and 95%, 90%, and 70% ethanol solutions in sequential order for 5 minutes each, and then immersed in a hematoxylin solution for 1 minute to stain the nuclei and then washed under running water for 10 minutes. Thereafter, the cytoplasm was stained by immersing the tissue in an eosin solution for 30 seconds. Thereafter, the tissue was immersed in 50%, 70%, 90%, and 95% ethanol solutions, and a xylene solution in sequential order, followed by dropping one drop of a mounting solution. Then, the tissue was covered with a cover slide and observed under a microscope (Carl Zeiss Vision). The tissue of a mouse was fixed with 10% neutral formalin for one day, and a paraffin section was made. In order to remove paraffin around the tissue, the tissue was allowed to react with a xylene solution and 95%, 90%, and 70% ethanol solutions in sequential order for 5 minutes each. For the antigen activation of the tissue, the tissue was immersed in a 0.1 M citric acid solution (pH 6.0) and then boiled for 20 minutes. […]

[4] = tested on: γH2AX in irradiated lung tissue; assay: Inhibition test on DNA damage caused by radiation (γH2AX immunostaining); assay type: in vivo, mouse; conditions: 10 mg/kg one hour prior to 90 Gy lung irradiation; compared to non-treatment group (IR)
Experimental: The tissue of a mouse was fixed with 10% neutral formalin for one day, and a paraffin section was made. In order to remove paraffin around the tissue, the tissue was immersed in a xylene solution and 100%, 95%, 90%, and 70% ethanol solutions in sequential order. For the antigen activation of the tissue, the tissue was immersed in a 0.1 M citric acid solution (pH 6.0) and boiled for 30 minutes, and then reacted with 3% hydrogen peroxide for 15 minutes. The tissue was allowed to react with γH2AX (abcam), which was diluted in 1:200 ratio in a PBS solution (including phosphate based saline buffer and 0.1% triton x-100), at 4° C. for 16 hours. After washing the tissue with PBS, a secondary antibody conjugated with biotin was diluted in 1:200 ratio and reacted with the tissue at room temperature for 30 minutes. After reacting the tissue with ABC (Avidin biotin complex) at room temperature for 30 minutes and color-developing 3,3′-DAB (3,3′-diaminobenzidine), the tissue was counterstained with hematoxylin. Subsequently, the tissue was immersed in 50%, 70%, 90%, 95%, and 100% ethanol solutions and a xylene solution in sequential order, followed by dropping one drop of a mounting solution. Then, the tissue was covered with a cover slide and observed under a microscope (Carl Zeiss Vision). […]

[5] = tested on: vascular wall in the lung tissue of a mouse animal model irradiated with 90 Gy; assay: Inhibition test on in vivo vascular damage caused by radiation (vascular wall thickness, H&E staining); conditions: 10 mg/kg intraperitoneally one hour before 90 Gy chest irradiation; two weeks after irradiation; compared to non-treatment group (IR)
Experimental: The tissue of a mouse was fixed with 10% neutral formalin for one day, and a paraffin section was made. In order to remove the paraffin around the tissue, the tissue was allowed to react with a xylene solution and 95%, 90%, and 70% ethanol solutions in sequential order for 5 minutes each, and then immersed in a hematoxylin solution for 1 minute to stain the nuclei and then washed under running water for 10 minutes. Thereafter, the cytoplasm was stained by immersing the tissue in an eosin solution for 30 seconds. Thereafter, the tissue was immersed in 50%, 70%, 90%, and 95% ethanol solutions, and a xylene solution in sequential order, followed by dropping one drop of a mounting solution. Then, the tissue was covered with a cover slide and observed under a microscope (Carl Zeiss Vision). The lung tissue of a mouse animal model, in which the chest of the mouse was irradiated in a size of 3 mm with an intensity of 90 Gy, was fixed with 10% formalin, and a paraffin section was made. Thereafter, the tissue was stained with hematoxylin and eosin. Upon observing the tissue with this staining method, the cell nucleus is observed in blue and the cytoplasm in pink. One hour before irradiating the mouse animal model, 10 mg/kg of Dacomitinib was administered intraperitoneally. […]

SMILES: COc1cc2ncnc(Nc3ccc(F)c(Cl)c3)c2cc1NC(=O)/C=C/CN1CCCCC1 [Dacomitinib, (2E)-N-{4-[(3-chloro-4-fluorophenyl)amino]-7-methoxy-6-quinazolinyl}-4-(1-piperidinyl)-2-but enamide]
- blue sites of collagen (protein associated with pulmonary fibrosis), trichrome staining [1]: remarkably reduced
- infiltration of the inflammatory cells and the fibrotic matrix around blood vessels [2]: remarkably reduced
- pathological characteristics such as infiltration of inflammatory cells, fibrous nodules, interstitial thickening [3]: remarkably inhibited
- expression of γH2AX according to the DNA damage [4]: remarkably reduced
- thickness of the vascular wall [5]: remarkably reduced
